Read-outs that look alike come from different tables or passages of the source.
Experiments:
human Cav3.1 = target: T1, human Cav3.1 (Homo sapiens, UniProt O43497); assay: FLIPR calcium flux assay, Cav3.1; type: cell-based
T1 construct: expressed in transfected cells; host or cells: HEK293 FlpIn T-Rex cells (Invitrogen)
Method: HEK293 FlpIn T-Rex cells (Invitrogen, CA, United States) stably expressing human Cav3.1, Cav3.2, or Cav3.3 were maintained in Dulbecco’s Modified Eagle Medium (DMEM) supplemented with 10% foetal bovine serum (FBS), 1% penicillin-streptomycin (P/S) at 37°C, and 5% CO2 as previously described ([Bladen et al., 2021]; [Udoh et al., 2022]). Hygromycin (80 μg/mL) and blasticidin (15 μg/mL) were used as selection antibiotics and cells were passaged at 80% confluency. For experiments, cells were resuspended in Leibovitz’s L-15 media (containing 1% FBS, 1% P/S, 15 mM glucose, 2 μg/mL tetracycline), plated in black, clear-bottomed poly-D-lysine-coated 96-well plates (90 μL) (Corning, NY, United States), and incubated overnight in ambient air at 37°C. All compounds tested in cellular assays were prepared as stock solutions in DMSO and final DMSO concentration was 0.1%.
Intracellular calcium flux was measured using a fluorometric imaging plate-reader (FLIPR) Calcium 5 Assay Kit and FlexStation 3 Microplate Reader (Molecular Devices, San Jose, United States). Calcium 5 dye (90 μL) prepared in low potassium HBSS (Thermo Fisher Scientific) containing (in mM) 145 NaCl, 22 HEPES, 0.338 Na2HPO4, 4.17 NaHCO3, 0.441 KH2PO4, 0.407 MgSO4, 0.493 MgCl2, 1.26 CaCl2, 5.56 glucose, and […] with pH 7.4 was applied to each well and incubated for 1 h at 37°C, ambient air prior to testing.
Fluorescence readings were taken at 2 s intervals (λ excitation = 485 nm, λ emission = 525 nm). Following 2 min baseline reading, 20 μL of SB2193, SB2193F, or NNC 55-0396 (10 nM—10 μM) was added to cells and read for 5 min, then CaCl2 (10 mM) was added and read for 3 min. Baseline fluorescence averaged over the 20 s interval preceding CaCl2 addition was subtracted and normalized to the vehicle response. Changes in fluorescence were measured in relative fluorescence units (RFU). All compounds were assayed in ≥ five independent experiments (n = 5–8) performed in duplicate. Order of compound addition and location on the plate were varied between replicates. Data was fit to a four-parameter non-linear dose-response curve using GraphPad Prism 8.2.0 software (La Jolla, United States) to determine IC50 values.

[1] = Pharmacokinetics in mouse plasma and brain after single i.p. injection; type: in vivo; conditions: both sexes, 10 mg/kg i.p.; for AUC: wildtype F1, mouse, in vivo, 10 mg/kg
Method: (§1) SB2193 and SB2193F were prepared in ethanol-Tween 80%–0.9% saline (1:1:18 ratio) and valproic acid in 0.9% saline. All doses were completely soluble in this vehicle except for the 100 mg/kg SB2193 dose, which was a suspension.
Male and female wildtype F1 mice aged 21–28 days postnatal received a single i. p. injection of 10 mg/kg SB2193 or SB2193F. At selected timepoints (15–240 min), mice were anesthetised with isoflurane, blood was collected via cardiac puncture and whole brains were harvested. Brains were snap frozen on dry ice, and blood plasma was isolated via centrifugation (4,000 g for 10 min, 4^○C). Brain and plasma samples were stored at −80°C until assayed.
Plasma samples (50 μL) were spiked with an internal standard (diazepam) and vortexed with 1 M NaOH (50 μL) and methyl tert-butyl ether (1 mL) to achieve protein precipitation. The organic layer was isolated by centrifugation (4,000 g for 3 min) before being frozen for 60 min at −80°C, evaporated to dryness using N2, and reconstituted in 30% acetonitrile and 0.1% formic acid in water for analysis. Brain hemispheres were homogenised in a 10x w/v 1:1 methanol-water solution using a Biospec Tissue-Tearor (Bartlesville, United States) and centrifuged at 20,000 g for 30 min at 4°C. Supernatant (100 μL) was collected and prepared following the same method as plasma.
SB2193 and SB2193F concentrations in brain and plasma samples were assessed by high performance liquid chromatography-tandem mass spectrometry (HPLC-MS/MS) using a Shimadzu Nexera liquid chromatograph coupled with a Shimadzu 8,030 triple quadrupole mass spectrometer (Kyoto, Japan). Samples were run through a Zorbax C18 HPLC Column equipped with a Zorbax Eclipse XDB-C8 guard column (2.1 × 50 mm, 3.5 μm particle size; Agilent, Santa Clara, United States) with an injection volume of 10 μL using a gradient elution. Mobile phases of acetonitrile and 0.1% formic acid in water were delivered at a flow rate of 0.6 mL/min over 4.16 min, with a stepwise adjustment of mobile phase concentration gradient over time to optimise ion separation.
Quantification was achieved by comparing experimental samples to plasma and brain standards prepared with known concentrations of SB2193 or SB2193F. Samples were quantified against a 7-point standard curve (R ^2 > 0.98 for both analytes).
Concentrations of SB2193 or SB2193F in plasma and brain at each timepoint were averaged and concentration-time curves were generated using GraphPad Prism. Pharmacokinetic parameters were calculated using non-compartmental analysis. The linear-log trapezoidal method was used to calculate drug exposure (area under the curve, AUC) using equations previously described ([Hawkins et al., 2017]).

[2] = system: 6 Hz-induced seizures in Swiss mice; assay: 6 Hz seizure model in mice; type: in vivo, mouse
Method: Swiss outbred mice used in 6 Hz seizure experiments were purchased from Australian Resources Centre (stock ARC(S); Canning Vale, Australia) and single housed for 1 week prior to experimentation to prevent fighting.
6 Hz seizures were induced in Swiss male mice (9–10 weeks old) using an Ugo Basile electroconvulsive therapy unit (Model 57,800; Gemonio, Italy). Mice were pre-treated with vehicle, SB2193 (10 mg/kg, 30 mg/kg, 100 mg/kg) or valproic acid (300 mg/kg) via i.p. injection 15 min before seizure induction based on the time-to-peak brain concentration determined in pharmacokinetic studies. […] A drop of 0.5% tetracaine was applied to both corneas immediately following the i.p. injection to provide local anaesthesia. Immediately prior to the electrical stimulation, saline was applied to each cornea to ensure electrical conductivity. Corneal electroshocks were administered at 44 mA, 6 Hz, 3 s shock duration, with a […] rectangular pulse width. Mice were shocked and scored by an observer blinded to treatment for the presence of twitching of the vibrissae, stun, myoclonus, rearing, forelimb clonus, and/or Straub tail. […] The ED50 for SB2193 was calculated using computer-assisted log-probit linear regression analysis ([Litchfield and Wilcoxon, 1949]). A χ^2 test was performed to assess statistical significance.

[3] = Aqueous solubility (dosing observation); type: physicochemical; conditions: prevented assessment at doses above 100 mg/kg
Method: as §1

[4] = wildtype F1, in vivo, ip, mouse plasma

T1 sequence (O43497 whole entry): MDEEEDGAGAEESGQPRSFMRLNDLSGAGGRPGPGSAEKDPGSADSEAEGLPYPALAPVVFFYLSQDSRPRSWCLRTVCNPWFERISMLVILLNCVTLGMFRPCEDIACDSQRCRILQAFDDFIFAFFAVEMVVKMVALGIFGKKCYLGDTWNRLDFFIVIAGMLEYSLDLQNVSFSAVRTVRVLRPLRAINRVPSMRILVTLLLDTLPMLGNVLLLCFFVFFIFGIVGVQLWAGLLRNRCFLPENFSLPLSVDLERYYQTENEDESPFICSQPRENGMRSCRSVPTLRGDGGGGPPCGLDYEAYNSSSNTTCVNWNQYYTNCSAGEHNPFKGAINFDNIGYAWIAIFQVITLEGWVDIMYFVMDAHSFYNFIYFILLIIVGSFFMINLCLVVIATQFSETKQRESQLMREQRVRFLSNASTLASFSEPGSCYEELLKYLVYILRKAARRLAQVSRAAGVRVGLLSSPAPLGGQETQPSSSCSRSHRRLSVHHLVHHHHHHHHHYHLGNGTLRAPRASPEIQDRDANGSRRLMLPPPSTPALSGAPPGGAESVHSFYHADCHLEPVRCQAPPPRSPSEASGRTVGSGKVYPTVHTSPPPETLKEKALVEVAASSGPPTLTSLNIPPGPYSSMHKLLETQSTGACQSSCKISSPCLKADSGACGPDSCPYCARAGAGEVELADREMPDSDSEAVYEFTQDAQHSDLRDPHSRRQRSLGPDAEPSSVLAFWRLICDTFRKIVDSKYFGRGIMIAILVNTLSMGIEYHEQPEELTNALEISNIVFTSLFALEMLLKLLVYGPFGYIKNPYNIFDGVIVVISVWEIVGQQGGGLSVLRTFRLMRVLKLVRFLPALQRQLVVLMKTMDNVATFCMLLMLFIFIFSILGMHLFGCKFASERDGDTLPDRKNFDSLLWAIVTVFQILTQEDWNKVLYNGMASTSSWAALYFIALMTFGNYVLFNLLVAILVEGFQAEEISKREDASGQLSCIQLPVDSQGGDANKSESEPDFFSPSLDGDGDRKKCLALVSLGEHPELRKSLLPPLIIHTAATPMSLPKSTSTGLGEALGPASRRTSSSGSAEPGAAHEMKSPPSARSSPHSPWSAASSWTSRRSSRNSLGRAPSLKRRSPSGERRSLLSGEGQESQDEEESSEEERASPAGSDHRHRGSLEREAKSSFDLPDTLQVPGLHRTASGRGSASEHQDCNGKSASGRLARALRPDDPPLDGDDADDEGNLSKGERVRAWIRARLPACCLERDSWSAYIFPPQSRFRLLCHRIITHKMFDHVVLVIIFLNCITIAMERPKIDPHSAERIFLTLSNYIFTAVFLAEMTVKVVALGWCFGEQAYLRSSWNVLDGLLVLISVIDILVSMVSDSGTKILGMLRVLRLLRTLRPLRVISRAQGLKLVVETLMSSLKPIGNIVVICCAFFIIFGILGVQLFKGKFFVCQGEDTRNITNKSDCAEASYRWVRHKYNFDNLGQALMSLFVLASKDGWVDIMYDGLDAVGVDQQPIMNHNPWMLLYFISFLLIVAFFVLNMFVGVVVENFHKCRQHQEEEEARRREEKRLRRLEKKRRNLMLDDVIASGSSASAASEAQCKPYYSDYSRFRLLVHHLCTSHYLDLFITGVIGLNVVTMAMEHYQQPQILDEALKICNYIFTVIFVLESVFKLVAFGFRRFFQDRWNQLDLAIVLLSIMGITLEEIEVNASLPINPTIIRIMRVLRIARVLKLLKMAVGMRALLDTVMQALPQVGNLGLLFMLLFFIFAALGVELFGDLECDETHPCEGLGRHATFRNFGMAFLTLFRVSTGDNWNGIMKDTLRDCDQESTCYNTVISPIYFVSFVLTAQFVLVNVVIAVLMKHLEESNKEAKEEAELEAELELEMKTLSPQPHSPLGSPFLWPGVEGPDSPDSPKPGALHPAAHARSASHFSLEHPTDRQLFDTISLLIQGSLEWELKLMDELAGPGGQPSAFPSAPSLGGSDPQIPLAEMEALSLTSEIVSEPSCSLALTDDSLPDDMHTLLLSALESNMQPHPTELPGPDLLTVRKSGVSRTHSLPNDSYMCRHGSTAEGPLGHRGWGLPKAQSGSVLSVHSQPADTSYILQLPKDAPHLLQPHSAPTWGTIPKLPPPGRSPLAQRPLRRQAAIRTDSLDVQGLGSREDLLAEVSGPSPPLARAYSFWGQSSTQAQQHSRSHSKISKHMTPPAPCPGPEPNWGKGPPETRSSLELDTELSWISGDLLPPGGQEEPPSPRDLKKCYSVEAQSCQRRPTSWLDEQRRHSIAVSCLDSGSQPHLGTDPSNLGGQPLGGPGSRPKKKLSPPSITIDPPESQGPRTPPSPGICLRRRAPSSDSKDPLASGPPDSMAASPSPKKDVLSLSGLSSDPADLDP

CCCCCn1cc(C(=O)N2CCN(C(=O)OC(C)(C)C)CC2)c2ccccc21 [SB2193]
IC50 (human Cav3.1): 750 nM
Tmax [1, 4]: ≤ 15 min
half-life [1, 4]: 29 min
Cmax ([1]; wildtype F1, in vivo, ip, mouse plasma, read-out: Cmax): 750 ± 50 nM
Cmax ([1]; wildtype F1, in vivo, ip, mouse plasma, read-out: Cmax (μg/mL)): 0.3 ± 0.02 µg/mL
Kp ([1]; wildtype F1, in vivo, ip, mouse, read-out: brain-plasma ratio): 2.7
Tmax ([1]; wildtype F1, ip, mouse brain): ≤ 15 min
half-life ([1]; wildtype F1, ip, mouse brain): 28 min
Cmax ([1]; wildtype F1, ip, mouse brain, read-out: Cmax): 3000 ± 1000 nM
Cmax ([1]; wildtype F1, ip, mouse brain, read-out: Cmax (μg/mL)): 1.2 ± 0.4 µg/mL
AUC ([1]; ip, mouse brain, brain concentration converted assuming density of 1 g/mL): 583 ng·h/mL
AUC ([1]; ip, mouse plasma): 217 ng·h/mL
percentage of mice protected from seizures compared to vehicle ([2]; 100 mg/kg i.p., 15 min before 6 Hz 44 mA stimulation, n = 10): significantly increased
ED50 ([2]; Mus musculus, ip, log-probit analysis, estimated): ~120 mg/kg
aqueous solubility [3]: poor aqueous solubility

From paper PMC10110893, “[…]-derived synthetic cannabinoids inhibit T-type calcium channels with divergent effects on seizures in rodent models of epilepsy” (Frontiers in Physiology, 2023)
